Measurements published in patent publication US9980943B2, “Methods of treating muscular dystrophy” (BOARD OF REGENTS OF THE NEVADA SYSTEM OF HIGHER EDUCATION, …, priority 2013, dated 2018).

What was measured:
Assay type in all cases: cell-based, mouse
[1] = test system: β-galactosidase in CMV-LacZ C2C12 myotubes; test: CMV-LacZ secondary screen in C2C12 myotubes (β-Gal stabilizing assay); settings: C2C12 CMV-LacZ myotubes, fold relative to DMSO
Summary of the method: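 First, C2C12 myoblasts were transfected with a linearized CMV-LACZ vector and clonal lines selected by FDG β-gal assay. Then cells were exposed to compounds at 0.5, 1, 5, 10, 20 and 40 μM in 96-well format, two replicates each, and β-gal measured.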

[2] = test system: α7 integrin (LacZ reporter in α7βgal+/− myoblasts); test: Myoblast α7+/LacZ integrin FDG assay (Burkin assay in myoblasts, 96-well); settings: α7+/LacZ myoblasts, 96-well
[3] = test system: α7 integrin (LacZ reporter in α7+/LacZ myotubes); test: Myotube α7 integrin FDG assay (Burkin assay in myotubes, 96-well); settings: myotubes
[4] = test system: β-galactosidase in CMV-LacZ C2C12 myoblasts; test: CMV-LacZ secondary screen in C2C12 myoblasts (β-Gal stabilizing assay); settings: CMV-LacZ C2C12 myoblasts
Summary of the method: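 C2C12 myoblasts stably carrying a linearized CMV-driven LacZ construct, clone chosen by β-gal level in the myoblast FDG assay. Compounds tested in 96-well dose-response at 0.5, 1, 5, 10, 20 and 40 μM, N=2 replicates per point, to detect β-gal stabilization.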

Row | Compound | CMV-LACZ in Myotubes, signal relative to DMSO ([1]; 0.5 uM) | CMV-LACZ in Myotubes, signal relative to DMSO ([1]; 1 uM) | CMV-LACZ in Myotubes, signal relative to DMSO ([1]; 5 uM) | CMV-LACZ in Myotubes, signal relative to DMSO ([1]; 10 uM) | CMV-LACZ in Myotubes, signal relative to DMSO ([1]; 20 uM) | CMV-LACZ in Myotubes, signal relative to DMSO ([1]; 40 uM) | Burkin Assay in Myoblasts, signal relative to DMSO ([2]; 0.5 uM) | Burkin Assay in Myoblasts, signal relative to DMSO ([2]; 1 uM) | Burkin Assay in Myoblasts, signal relative to DMSO ([2]; 5 uM) | Burkin Assay in Myoblasts, signal relative to DMSO ([2]; 10 uM) | Burkin Assay in Myoblasts, signal relative to DMSO ([2]; 20 uM) | Burkin Assay in Myoblasts, signal relative to DMSO ([2]; 40 uM) | Burkin Assay in Myotubes, α7 integrin LacZ reporter signal relative to DMSO ([3]; 0.5 uM) | Burkin Assay in Myotubes, α7 integrin LacZ reporter signal relative to DMSO ([3]; 1 uM) | Burkin Assay in Myotubes, α7 integrin LacZ reporter signal relative to DMSO ([3]; 5 uM) | Burkin Assay in Myotubes, α7 integrin LacZ reporter signal relative to DMSO ([3]; 10 uM) | Burkin Assay in Myotubes, α7 integrin LacZ reporter signal relative to DMSO ([3]; 20 uM) | Burkin Assay in Myotubes, α7 integrin LacZ reporter signal relative to DMSO ([3]; 40 uM) | CMV-LACZ in Myoblasts (β-galactosidase activity relative to DMSO) ([4]; 0.5 uM) | CMV-LACZ in Myoblasts (β-galactosidase activity relative to DMSO) ([4]; 1 uM) | further results
1 | O=CN1CCN(C(=O)CC(c2ccccc2)c2cc(Br)ccc2O)CC1 (centres unmarked) [MLS001000874-01] | 1.0943 | 1.1590 | 1.1124 | 0.9960 | 1.1484 | 1.0947 | 1.175 | 1.033 | 1.077 | 0.8677 | 1.007 | 0.9545 | 0.9357 | 0.8646 | 1.0731 | 0.9216 | 0.9266 | 0.8181 | 1.1029 | 1.0442 | CMV-LACZ in Myoblasts (β-galactosidase activity relative to DMSO) ([4]; 5 uM): 0.8886; CMV-LACZ in Myoblasts (β-galactosidase activity relative to DMSO) ([4]; 10 uM): 1.0295; CMV-LACZ in Myoblasts (β-galactosidase activity relative to DMSO) ([4]; 20 uM): 1.0556; CMV-LACZ in Myoblasts (β-galactosidase activity relative to DMSO) ([4]; 40 uM): 1.1100
2 | Cc1cc(C)cc(OCC(=O)N/N=C/c2ccccn2)c1 [MLS000710669-01] | 0.9341 | 0.8881 | 0.9690 | 1.2372 | 0.8682 | 1.1824 | 1.025 | 1.05 | 1.0722 | 0.9941 | 1.848 | 0.8243 | 1.045 | 1.163 | 1.054 | 0.9 | 0.9967 | 1.0073 | 1.0969 | 0.9975 | CMV-LACZ in Myoblasts (β-galactosidase activity relative to DMSO) ([4]; 5 uM): 1.0325; CMV-LACZ in Myoblasts (β-galactosidase activity relative to DMSO) ([4]; 10 uM): 1.0823; CMV-LACZ in Myoblasts (β-galactosidase activity relative to DMSO) ([4]; 20 uM): 1.1319; CMV-LACZ in Myoblasts (β-galactosidase activity relative to DMSO) ([4]; 40 uM): 0.8778
3 | COc1cc(C=O)ccc1OCC(=O)Nc1ccc2c(c1)OCO2 [MLS001123876-01] | 0.8962 | 1.4943 | 0.9002 | 0.9279 | 0.9880 | 1.0300 | 1.041 | 0.8264 | 1.44 | 1.095 | 0.9339 | 0.8844 | 0.866 | 0.8193 | 1.1689 | 1.232 | 0.7114 | 1.003 | 0.8260 | 1.0263 | CMV-LACZ in Myoblasts (β-galactosidase activity relative to DMSO) ([4]; 5 uM): 0.9251; CMV-LACZ in Myoblasts (β-galactosidase activity relative to DMSO) ([4]; 10 uM): 0.9871; CMV-LACZ in Myoblasts (β-galactosidase activity relative to DMSO) ([4]; 20 uM): 0.9618; CMV-LACZ in Myoblasts (β-galactosidase activity relative to DMSO) ([4]; 40 uM): 0.7333
4 | N#CC1=C2SCN(c3ccccc3)CN2C(=O)CC1c1cccs1 (centres unmarked) [MLS000080654-01] | 1.1229 | 1.0086 | 1.0335 | 1.0399 | 1.1871 | 1.4259 | 0.9788 | 0.923 | 0.9235 | 0.9429 | 1.112 | 0.9166 | 1.067 | 1.092 | 0.9044 | 0.9707 | 0.7422 | 0.6217 | 1.1851 | 1.4314 | CMV-LACZ in Myoblasts (β-galactosidase activity relative to DMSO) ([4]; 5 uM): 1.0703; CMV-LACZ in Myoblasts (β-galactosidase activity relative to DMSO) ([4]; 10 uM): 0.9345; CMV-LACZ in Myoblasts (β-galactosidase activity relative to DMSO) ([4]; 20 uM): 1.0174; CMV-LACZ in Myoblasts (β-galactosidase activity relative to DMSO) ([4]; 40 uM): 0.8815
5 | Nc1ncnc(N2CCc3ccccc32)c1[N+](=O)[O-] [MLS000683232-01] | 0.8200 | 0.7752 | 0.8743 | 1.0086 | 0.8835 | 0.8365 | 1.234 | 1.199 | 1.6445 | 1.778 | 1.821 | 1.654 | 1.136 | 1.2778 | 1.272 | 1.448 | 1.4149 | 1.32 | 0.8043 | 0.7131 | MT FOLD INCREASE ([3]; maximum response): 1.7 fold; EC50 ([3]; nonlinear regression of dose-response curves, read-out: EC50 α7+/LacZ MT): 5.3 µM; CMV-LACZ in Myoblasts (β-galactosidase activity relative to DMSO) ([4]; 5 uM): 0.5638; CMV-LACZ in Myoblasts (β-galactosidase activity relative to DMSO) ([4]; 10 uM): 0.5224; CMV-LACZ in Myoblasts (β-galactosidase activity relative to DMSO) ([4]; 20 uM): 0.6119; CMV-LACZ in Myoblasts (β-galactosidase activity relative to DMSO) ([4]; 40 uM): 0.8237
